pIC50: −log10 of the molar value. Several values for one entry are separate records, joined by “and”; a condition that tells them apart may be missing. Equal values may be shown once.
System: 227483-062-R1-J1-PDC complex spheroids with HUVEC/MSC, viability
Assay: Anticancer human tumor 227483-062-R1-J1-PDC patient-derived pancreatic carcinoma cell line growth inhibition [CLK]
Details: for viability, T/C: stronger effect = lower value
Excerpt: A high-throughput screen of multi-cell type tumor spheroids was designed to identify active combinations of […] and targeted small molecules. Complex spheroids include a stromal component modeled by human endothelial cells (HUVEC) and fibroblasts modeled by human mesenchymal stem cells (MSCs). The concentration ranges selected for each drug and investigational agent were based upon clinically achievable concentrations if the clinical Cmax of the agent was known.
Compounds. The drugs and investigational agents: cirtuvivint (SM08502; NSC835563), CC-671 (NSC850746), vemurafenib (NSC761431), tapotoclax (NSC804041), sotorasib (NSC818433), adagrasib (NSC831453), MRTX-1133 (NSC836407), BAY2416964 (NSC825713), copanlisib (NSC816437), inavolisib (NSC800729), abemaciclib (NSC768073), osimertinib (NSC779217), entinostat (NSC756642), eltanexor (KPT-8602, NSC794443), venetoclax (NSC766270), ceralasertib (NSC777638), bortezomib (NSC756655), olaparib (NSC753686), talazoparib (NSC767125), alisertib (NSC759677), peposertib (NSC802822), gemcitabine (NSC613327), 5-fluorouracil (NSC19893), SN-38 (NSC673596), oxaliplatin (NSC266046), paclitaxel (NSC125973), and doxorubicin (NSC123127), were obtained from the National Cancer Institute (NCI) Developmental Therapeutics Program Chemical Repository. The FDA-approved anticancer drug set is available from the Developmental Therapeutics Program at https://dtp.cancer.gov/organization/dscb/obtaining/available plates.htm. […] The stock solutions were prepared in dimethyl sulfoxide (DMSO, Sigma-Aldrich, St. Louis, MO, cat. D2650), except for the platinum complexes which were prepared in saline (Quality Biological, Gaithersburg, MD, cat. 114-055-101), at 800-fold the tested concentration and stored at -70 degrees C prior to their use. All drugs and investigational agents were tested over a range starting from a high concentration at or near the clinical Cmax and decreasing in half-log increments. If the clinical Cmax for an agent had not been determined, the highest concentration tested was 10 microM.
Cell Culture. All cells were maintained in an incubator at 37 degrees C and 5% CO2 with 95% humidity. The PDC lines were cultured according to standard operating procedures established by the NCI PDMR. Briefly, all PDCs were thawed and cultured in Matrigel-coated flasks prepared with a working solution of 1X Ham's F-12 nutrient mix, without supplementation (Invitrogen, Waltham, MA, cat. 11765054), 100 U/mL penicillin-streptomycin (Invitrogen, cat. 15140122), and 2.5% Matrigel (Corning Inc., Corning, NY, cat. 354248) for the first three passages. The 947758-054-R-J2-PDC line was cultured in 6B/Colon 1A media, which includes advanced DMEM/F-12 (Thermo Fisher Scientific, cat. 12634028), 10 mM HEPES (Thermo Fisher Scientific, cat. 15630080), 1X GlutaMAX supplement (Thermo Fisher Scientific, cat. 35050061), 0.1 mg/mL primocin (InvivoGen, cat. ant-pm-2), 10% defined fetal bovine serum, heat inactivated (HyClone Laboratories Inc., cat. SH30070.03HI), 1.25 mM N-Acetyl-L-cysteine (Sigma-Aldrich, cat. A9165), 10 mM nicotinamide (Sigma-Aldrich, cat. N0636), 1X B-27 supplement (Thermo Fisher Scientific, cat. 17504044), 1X N-2 supplement (Thermo Fisher Scientific, cat. 17502048), and 10 microM Y-27632 dihydrochloride (Tocris Bioscience, cat. 1254). The 876862-298-R-J1-PDC was cultured in 6E media, which includes all 6B/Colon 1A media components plus 50% L-WRN conditioned media (ATCC, cat. CRL-3276), 50 ng/mL recombinant human EGF recombinant protein (hEGF; Thermo Fisher Scientific, cat. PHG0311), 10 ng/mL recombinant human fibroblast growth factor 10 (hGFG-10; PeproTech, cat. 100-26), 1 ng/mL recombinant human fibroblast growth factor 2 (hFGF-2; PeproTech, cat. 100-18B), and 1 µM prostaglandin E2 (PGE2; Tocris, cat. 2296). The 227483-062-R1-J1-PDC line was cultured in Panc media, containing all 6E components except hFGF-2, with the addition of 500 nM SB-431542 (Selleckchem, cat. S1067) and 10 nM gastrin (Tocris, cat. 3006). […]

[1] = curve of first compound, second compound 0.0316 µM
[2] = curve of first compound, second compound 0.1 µM
[3] = curve of first compound, second compound 0.316 µM
[4] = curve of first compound, second compound 1 µM
[5] = curve of first compound, second compound 3.16 µM
[6] = curve of first compound, second compound 10 µM
[7] = second compound 0.0316 µM, first compound 0.0316 µM
[8] = second compound 0.0316 µM, first compound 0.1 µM
[9] = second compound 0.0316 µM, first compound 0.316 µM
[10] = second compound 0.0316 µM, first compound 1 µM
[11] = second compound 0.0316 µM, first compound 3.16 µM
[12] = second compound 0.0316 µM, first compound 10 µM
[13] = second compound 0.1 µM, first compound 0.0316 µM
[14] = second compound 0.1 µM, first compound 0.1 µM
[15] = second compound 0.1 µM, first compound 0.316 µM
[16] = second compound 0.1 µM, first compound 1 µM
[17] = second compound 0.1 µM, first compound 3.16 µM
[18] = second compound 0.1 µM, first compound 10 µM
[19] = second compound 0.316 µM, first compound 0.0316 µM
[20] = second compound 0.316 µM, first compound 0.1 µM
[21] = second compound 0.316 µM, first compound 0.316 µM
[22] = second compound 0.316 µM, first compound 1 µM
[23] = second compound 0.316 µM, first compound 3.16 µM
[24] = second compound 0.316 µM, first compound 10 µM
[25] = second compound 1 µM, first compound 0.0316 µM
[26] = second compound 1 µM, first compound 0.1 µM
[27] = second compound 1 µM, first compound 0.316 µM
[28] = second compound 1 µM, first compound 1 µM
[29] = second compound 1 µM, first compound 3.16 µM
[30] = second compound 1 µM, first compound 10 µM
[31] = second compound 3.16 µM, first compound 0.0316 µM
[32] = second compound 3.16 µM, first compound 0.1 µM
[33] = second compound 3.16 µM, first compound 0.316 µM
[34] = second compound 3.16 µM, first compound 1 µM
[35] = second compound 3.16 µM, first compound 3.16 µM
[36] = second compound 3.16 µM, first compound 10 µM
[37] = second compound 10 µM, first compound 0.0316 µM
[38] = second compound 10 µM, first compound 0.1 µM
[39] = second compound 10 µM, first compound 0.316 µM
[40] = second compound 10 µM, first compound 1 µM
[41] = second compound 10 µM, first compound 3.16 µM
[42] = second compound 10 µM, first compound 10 µM
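Also: spheroids exposed to compounds for seven days before readout.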
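For viability, T/C in this document: percent of DMSO vehicle control luminescence as 100% viability.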

For `CCCS(=O)(=O)Nc1ccc(F)c(C(=O)c2c[nH]c3ncc(-c4ccc(Cl)cc4)cc23)c1F` + CNC(=O)c1ccc(Nc2nc(OC3CCCC3)c3c(-c4ccc5nc(C)oc5c4)c[nH]c3n2)c(OC)c1, the pIC50 [1] was < 5.00, the pIC50 [2] was < 5.00 and the pIC50 [3] was 5.04. The pIC50 [4] was 5.15, the pIC50 [5] was 6.62 and the pIC50 [6] was > 7.50. The viability, T/C [7] was 87.8%, the viability, T/C [8] was 94% and the viability, T/C [9] was 96.5%. For the same compound, the viability, T/C [10] was 101%, the viability, T/C [11] was 105% and the viability, T/C [12] was 66.2%. For the same compound, the viability, T/C [13] was 102%, the viability, T/C [14] was 101% and the viability, T/C [15] was 107%. The viability, T/C [16] was 108%, the viability, T/C [17] was 114% and the viability, T/C [18] was 56.2%. For the same compound, the viability, T/C [19] was 78.2%, the viability, T/C [20] was 93.2% and the viability, T/C [21] was 96%. The viability, T/C [22] was 118%, the viability, T/C [23] was 126% and the viability, T/C [24] was 46%. The viability, T/C [25] was 64.7%, the viability, T/C [26] was 80% and the viability, T/C [27] was 84.1%. For the same compound, the viability, T/C [28] was 85.7%, the viability, T/C [29] was 85.8% and the viability, T/C [30] was 36.9%. It also gave a viability, T/C [31] of 53.1%, a viability, T/C [32] of 52.6% and a viability, T/C [33] of 49.6%. It also gave a viability, T/C [34] of 36.1%, a viability, T/C [35] of 28.1% and a viability, T/C [36] of 24.7%. For the same compound, the viability, T/C [37] was 39%, the viability, T/C [38] was 40.2% and the viability, T/C [39] was 45.1%. It also gave a viability, T/C [40] of 35.5%, a viability, T/C [41] of 33.5% and a viability, T/C [42] of 24.3%.

In the case of `COc1cccc2c1C(=O)c1c(O)c3c(c(O)c1C2=O)CC(O)(C(=O)CO)CC3OC1CC(N)C(O)C(C)O1` (configuration not stated), the viability, T/C (compound 0.0316 µM) was 90% and 75.6%, the viability, T/C (compound 0.1 µM) was 108% and 58% and the viability, T/C (compound 0.316 µM) was 54.2% and 42.7%. The viability, T/C (compound 1 µM) was 34.5% and 24.4%, the viability, T/C (compound 3.16 µM) was 7.31% and 2.77% and the viability, T/C (compound 10 µM) was 8.24% and 9.84%. The pIC50 (curve of compound) was 6.32 and 6.73.

In the case of `CN1CCN(c2cc(C(=O)Nc3cc4cc(-c5cnn(C)c5)ccc4cn3)ccn2)CC1`, the viability, T/C (compound 0.0316 µM) was 95.7% [middle of 12 runs], the viability, T/C (compound 0.1 µM) was 62.8% [middle of 12 runs] and the viability, T/C (compound 0.316 µM) was 5.79% [middle of 12 runs]. For the same compound, the viability, T/C (compound 1 µM) was 1.97% [middle of 12 runs], the viability, T/C (compound 3.16 µM) was 3.33% [middle of 12 runs] and the viability, T/C (compound 10 µM) was 2.87% [middle of 12 runs]. For the same compound, the IC50 (compound alone, run of 09/18/2023) was 129 nM [middle of 11 runs].

In the case of `COC1C=CCC(C)C(C)S(=O)(=O)NC(=O)c2ccc3c(c2)N(CC2CCC21)CC1(CCCc2cc(Cl)ccc21)CO3` (configuration not stated) + CN1CCN(c2cc(C(=O)Nc3cc4cc(-c5cnn(C)c5)ccc4cn3)ccn2)CC1, the pIC50 [1] was 5.23, the pIC50 [2] was 6.51 and the pIC50 [3] was > 7.50. The pIC50 [4] was > 7.50, the pIC50 [5] was > 7.50 and the pIC50 [6] was > 7.50. For the same compound, the viability, T/C [7] was 94.5%, the viability, T/C [8] was 89.8% and the viability, T/C [9] was 109%. For the same compound, the viability, T/C [10] was 87.1%, the viability, T/C [11] was 82.4% and the viability, T/C [12] was 23.2%. The viability, T/C [13] was 74.2%, the viability, T/C [14] was 77.4% and the viability, T/C [15] was 45.6%. The viability, T/C [16] was 25.9%, the viability, T/C [17] was 14.9% and the viability, T/C [18] was 9.47%. It also gave a viability, T/C [19] of 5.64%, a viability, T/C [20] of 6.22% and a viability, T/C [21] of 4.57%. It also gave a viability, T/C [22] of 5.41%, a viability, T/C [23] of 4.64% and a viability, T/C [24] of 2.38%. For the same compound, the viability, T/C [25] was 1.87%, the viability, T/C [26] was 1.41% and the viability, T/C [27] was 1.74%. It also gave a viability, T/C [28] of 2.02%, a viability, T/C [29] of 3.06% and a viability, T/C [30] of 3.77%. The viability, T/C [31] was 4.46%, the viability, T/C [32] was 3.64% and the viability, T/C [33] was 3.99%. The viability, T/C [34] was 2.73%, the viability, T/C [35] was 2.81% and the viability, T/C [36] was 1.89%. For the same compound, the viability, T/C [37] was 4.15%, the viability, T/C [38] was 2.18% and the viability, T/C [39] was 2.3%. It also gave a viability, T/C [40] of 2.91%, a viability, T/C [41] of 2.23% and a viability, T/C [42] of 1.54%.

With `CCc1c2c(nc3ccc(O)cc13)-c1cc3c(c(=O)n1C2)COC(=O)[C@]3(O)CC` the viability, T/C (compound 0.00316 µM) was 77.7% and 88.3%, the viability, T/C (compound 0.01 µM) was 94.4% and 86.2% and the viability, T/C (compound 0.0316 µM) was 79.4% and 58.8%. For the same compound, the viability, T/C (compound 0.1 µM) was 55.3% and 49%, the viability, T/C (compound 0.316 µM) was 54.1% and 53% and the viability, T/C (compound 1 µM) was 36.8% and 33.1%. For the same compound, the pIC50 (curve of compound) was 6.68 and 7.14.

For `NC(=O)C(=Cn1cnc(-c2cc(C(F)(F)F)cc(C(F)(F)F)c2)n1)c1cncnc1`, the viability, T/C (compound 0.00949 µM) was 78.8% and 82.5%, the viability, T/C (compound 0.03 µM) was 85.2% and 85.8% and the viability, T/C (compound 0.0949 µM) was 83.2% and 62.7%. For the same compound, the viability, T/C (compound 0.3 µM) was 87.1% and 54.1%, the viability, T/C (compound 0.949 µM) was 48.8% and 28% and the viability, T/C (compound 3 µM) was 15% and 10.8%. The pIC50 (curve of compound) was 6.04 and 6.50.

Source: PubChem BioAssay AID2060623 (Molecular Pharmacology Branch, DTP, NCI, 2025)
